# Laboratory results published in patent publication US6423704B1, “Substituted 4-(1H-benzimidazol-2-yl)[1,4]diazepanes useful for the treatment of allergic diseases” (Aventis Pharmaceuticals Inc., priority 1995, dated 2002).
# Counter-ions that a name gives are not always drawn.
row,SMILES,melting point [°C]
1,"CCOCCn1c(N2CCCN(CCC3(c4ccc(OC)c(OC)c4)CCN(C(=O)c4cc(OC)c(OC)c(OC)c4)C3)CC2)nc2ccccc21 (centres unmarked) (as salt: salt) [Example 1, 1-(3,4,5-Trimethoxybenzoyl)-3-(2-(4-(1-(2-ethoxyethyl)-1H-benzimidazol-2-yl)[1,4]diazepan-1-yl)ethyl)-3-(3,4-dimethoxyphenyl)pyrrolidine]",90 to 100
2,"CCOCCn1c(N2CCCN(CCC3(c4ccccn4)CCN(C(=O)c4cc(OC)c(OC)c(OC)c4)C3)CC2)nc2ccccc21 (centres unmarked) [Example 32, 1-(3,4,5-Trimethoxybenzoyl)-3-(2-(4-(1-(2-ethoxyethyl)-1H-benzimidazol-2-yl)[1,4]diazepan-1-yl)ethyl)-3-(pyrid-2-yl)pyrrolidine]",40 to 42
